# Data: patent US20230141783A1, “DIFFERENT FORMS OF 6-CHLORO-2-ETHYL-N-(4-(4-(4-(TRIFLUOROMETHOXY)PHENYL)PIPERIDINE-1-YL)BENZYL)IMIDAZO[1,2-A]PYRIDINE-3-CARBOXAMIDE” (priority 2019, published 2023)
# Entries after “also recorded” stand apart in the source; their conditions may differ. Like-named read-outs stand apart in the source and are kept apart here.
# Experiments:
# [1] = pKa analysis (UV-metric titration); assay type: physicochemical; conditions: methanol-water co-solvent, aqueous values by Yasuda-Shedlovsky extrapolation, 25.0-25.1 °C, 0.15 M KCl
# Description: The sample pKas were determined using the spectrometric (UV-metric) technique. The sample was titrated in a UV-metric triple titration from pH 2.0-12.0 at concentrations of 31 -23 µM, under methanol-water co-solvent conditions (the methanol mixing ratio varied from 63.9 to 46.7% w/w).
# It should be noted that an additional potentiometric assay was carried out which confirmed the pKas and that there were no further pKas associated with the sample within the measurable pH range (2.0-12.0).
# [2] = Approximate solubility of the free base by gravimetry method; assay type: physicochemical; conditions: organic solvent or mixture, thermodynamic from solid
# Description: The objective of measuring solubility of free base was to identify potential solvents for salt formation process development. Approximate solubility of the free base was measured by gravimetry method. Excess solids were added to various solvents including some Class III solvents (ICH guideline) at RT and 50° C. Since the solubility in these solvents is generally low, it was decided to mix water with these solvents. The suspensions were slurried for one day; the clear liquors from the top portion of the suspension were used for solubility determination by gravimetry method.
# [3] = Solubility estimation by aliquot addition and Clarity temperature cycling; conditions: for solubility: 20 °C, organic solvent or mixture, thermodynamic from solid
# cytochrome bc1 = cytochrome bc1 (Mycobacterium tuberculosis, UniProt P9WP37); conditions: Pethe et al., Nature Medicine, 19, 1157-1160 (2013); inhibiting cytochrome bc1 activity; cited from earlier work
# physchem [4] = conditions: pH 1, simulated gastric fluid, thermodynamic from solid
# [5] = mono-tosylate
# physchem [6] = conditions: thermodynamic from solid
# Description: Approximate solubility of the starting di-tosylate salt (Form A) was measured by gravimetry method. 100 mg of the solid was suspended in 10 vol of various solvents and stirred at RT and 50° C. for 3 days. The mother liquid was then used to measure the solubility.
# [7] = Forms A and C re-slurry in pure solvents at RT (aging experiments, XRPD); assay type: physicochemical; conditions: re-slurry of Forms A and C at RT; except in methanol
# Description: These experiments were performed to investigate potential transformation between Form A and C. The procedure of the experiments is shown below. • 15 mg Form A and 15 mg Form C were add into a 1.5 ml vial with magnetic stirrer. • 20 vol (600 ul) of various solvents was added into the vial • The suspensions were stir at RT for 5 days • Then filter and the solid was sent for XRPD (before and after drying in oven) and DSC
# [8] = Long-term stability at 25° C./60% RH (HPLC); assay type: physicochemical; conditions: for Purity [%] (as measured by HPLC): 25° C./60% RH
# [9] = Exposing Forms A and C in 100% RH at RT (XRPD/DSC); assay type: physicochemical; conditions: 100% RH at RT for 6 days, ditosylate
# From the text: Forms A and C were exposed in 100% RH environment at RT for 6 days; the solids were subsequently analyzed using DSC and XRPD.
# In FIGS. 1 and 17, the XRPD of sample of Form A (previous obtained form EA and IPA/MEK) before and after 6 days exposure to 100% RH are sketched. FIGS. 19 and 20 show the DSC scan of the same samples after exposure. […] FIGS. 18 and 21 show the result of the same treatment for Form C.
# [10] = Stability under accelerated conditions 40° C./75% RH (HPLC); assay type: physicochemical; conditions: 40° C./75% RH, 6 months
# DVS water absorption = assay type: physicochemical; conditions: 90% RH at RT; ditosylate
# From the text: (FIGS. 4-5). It is the predominant form obtained in slurry experiments. Conversion from Form A to other XRPD patterns was mainly obtained from methanol (to Form C) or water (to pattern B) in the slurry medium. However, as it will be shown in further sections, Form C is converted to Form A upon re-slurry in the majority of other solvents (than methanol).
# FIGS. 9 to 11 show XRPD, DSC, and TGA of a solid with Form C. […] The XRPD peaks of pattern C are sharper than those of Form A. Form C is the predominant form when methanol is used as the slurry medium. However, Form “C” is not a methanol solvate form of the di-tosylate salt. Many reactive crystallization experiments using different solvents generated Form C immediately after salt formation.
# cytochrome bc1, sequence (P9WP37 whole entry, looked up): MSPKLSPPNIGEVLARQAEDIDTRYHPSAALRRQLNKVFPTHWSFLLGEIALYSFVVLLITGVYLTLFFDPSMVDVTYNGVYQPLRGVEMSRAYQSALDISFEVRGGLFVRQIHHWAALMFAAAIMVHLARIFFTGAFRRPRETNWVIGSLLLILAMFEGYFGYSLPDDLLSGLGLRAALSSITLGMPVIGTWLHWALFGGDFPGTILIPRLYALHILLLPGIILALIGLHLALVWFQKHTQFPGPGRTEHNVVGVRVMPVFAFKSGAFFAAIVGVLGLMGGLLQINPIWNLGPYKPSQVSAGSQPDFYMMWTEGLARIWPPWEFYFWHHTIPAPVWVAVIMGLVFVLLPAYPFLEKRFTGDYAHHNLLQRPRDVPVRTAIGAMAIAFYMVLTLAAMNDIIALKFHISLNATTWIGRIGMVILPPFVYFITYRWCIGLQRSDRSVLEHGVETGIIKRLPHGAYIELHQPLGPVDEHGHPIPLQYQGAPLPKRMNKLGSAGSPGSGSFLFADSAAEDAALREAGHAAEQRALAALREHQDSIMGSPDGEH
structure (smiles),measurement,setting,value
"CCc1nc2ccc(Cl)cn2c1C(=O)NCc1ccc(N2CCC(c3ccc(OC(F)(F)F)cc3)CC2)cc1 [Q203 free base, 6-chloro-2-ethyl-N-(4-(4-(4-(trifluoromethoxy)phenyl)piperidine-1-yl)benzyl)imidazo[1,2-a]pyridine-3-carboxamide]",pKa,[1],3.7 ± 0.06
same,solubility at 1 day,"[2]; Acetone+5%water, 50° C.",74 mg/mL
same,solubility at 1 day,"[2]; Acetone+5%water, RT",22 mg/mL
same,solubility at 1 day,"[2]; Acetone+10%water, 50° C.",42 mg/mL
same,solubility at 1 day,"[2]; Acetone, 50° C.",48 mg/mL
same,solubility at 1 day,"[2]; EA and its mixture with water, 50° C.",55 to 98 mg/mL
same,solubility at 1 day,"[2]; EA+4%water, 50° C.",55 mg/mL
same,solubility at 1 day,"[2]; EA+4%water, RT",16 mg/mL
same,solubility at 1 day,"[2]; Ethyl Acetate (EA), 50° C.",99 mg/mL
same,solubility at 1 day,"[2]; Ethyl Acetate (EA), RT",13 mg/mL
same,solubility at 1 day,"[2]; IPA or its mixture with water, 50° C.",11 to 22 mg/mL
same,solubility at 1 day,"[2]; IPA+5%water, 50° C.",22 mg/mL
same,solubility at 1 day,"[2]; IPA+15%water, 50° C.",11 mg/mL
same,solubility at 1 day,"[2]; IPAC+4%water, 50° C.",35 mg/mL
same,solubility at 1 day,"[2]; Isopropyl Acetate (IPAC), 50° C.",51 mg/mL
same,solubility at 1 day,"[2]; Isopropyl Acetate (IPAC), RT",26 mg/mL
same,solubility at 1 day,"[2]; Isopropyl Alcohol (IPA), 50° C.",20 mg/mL
same,solubility at 1 day,"[2]; MA+4%water, 50° C.",105 mg/mL
same,solubility at 1 day,"[2]; MA+4%water, RT",18 mg/mL
same,solubility at 1 day,"[2]; Methyl Amine (MA), 50° C.",94 mg/mL
same,solubility at 1 day,"[2]; Methyl Amine (MA), RT",38 mg/mL
same,solubility at 1 day,"[2]; Tetrahydrofuran (THF), 50° C.",279 mg/mL
same,solubility at 1 day,"[2]; Tetrahydrofuran (THF), RT",133 mg/mL
same,solubility at 1 day,"[2]; acetone and its mixture with water, 50° C.",41 to 74 mg/mL
same,solubility at 1 day,"[2]; methyl acetate, 50° C.",94 to 105 mg/mL
same,Tcryst,[3]; IPA,37.0-39.3 °C
same,Tdisso,[3]; IPA,52.5-55.7 °C
same,solubility,[3]; IPA,< 25.3 mg/mL
same,Tcryst,[3]; MEK,not observed
same,Tdisso,[3]; MEK,ambient
same,solubility,[3]; MEK,50 to 56 mg/mL
same,Tcryst,[3]; acetone,*not observed
same,solubility,[3]; acetone,< 25.4 mg/mL
same,Tdisso,"[3]; acetone, partial solubility when heated, solid remained after two Clarity heat/cool cycles",*35 °C
same,Tcryst,[3]; acetonitrile,47.4-47.9 °C
same,Tdisso,[3]; acetonitrile,58.2-58.9 °C
same,solubility,[3]; acetonitrile,< 25 mg/mL
same,Tcryst,[3]; dichloromethane,not observed
same,Tdisso,[3]; dichloromethane,ambient
same,solubility,[3]; dichloromethane,169 to 253 mg/mL
same,Tcryst,[3]; dimethyl sulfoxide,32.8-39.3 °C
same,Tdisso,[3]; dimethyl sulfoxide,53.6-54.7 °C
same,solubility,[3]; dimethyl sulfoxide,< 25.5 mg/mL
same,Tcryst,[3]; ethyl acetate,not observed
same,Tdisso,[3]; ethyl acetate,ambient
same,solubility,[3]; ethyl acetate,34 to 36 mg/mL
same,Tcryst,[3]; methanol,25.3-26.6 °C
same,Tdisso,[3]; methanol,45.6-47.1 °C
same,solubility,[3]; methanol,< 25 mg/mL
same,Tcryst,[3]; methyl tert-butyl ether,not observed
same,Tdisso,[3]; methyl tert-butyl ether,not observed
same,solubility,[3]; methyl tert-butyl ether,< 25.6 mg/mL
same,Tcryst,[3]; tetrahydrofuran,not observed
same,Tdisso,[3]; tetrahydrofuran,ambient
same,solubility,[3]; tetrahydrofuran,128 to 255 mg/mL
same,activity against tuberculosis,cytochrome bc1,active against tuberculosis
"CCc1nc2ccc(Cl)cn2c1C(=O)NCc1ccc(N2CCC(c3ccc(OC(F)(F)F)cc3)CC2)cc1.Cc1ccc(S(=O)(=O)O)cc1 [pTSA salt, 6-chloro-2-ethyl-N-(4-(4-(4-(trifluoromethoxy)phenyl)piperidine-1-yl)benzyl)imidazo[1,2-a]pyridine-3-carboxamide mono-tosylate]",solubility,physchem [4],~0.33 mg/mL
same,solid form after slurrying in buffer (XRPD),"[5]; pH 1 buffer, listed as pTSA",remained the same pattern
same,solid form after slurrying in buffer (XRPD),[5]; pH 1 buffer,remained stable
same,solid form after slurrying in buffer (XRPD),[5]; pH 4.5 and above,converted to freebase (type 28)
"CCc1nc2ccc(Cl)cn2c1C(=O)NCc1ccc(N2CCC(c3ccc(OC(F)(F)F)cc3)CC2)cc1.Cc1ccc(S(=O)(=O)O)cc1.Cc1ccc(S(=O)(=O)O)cc1 [Form A, 6-chloro-2-ethyl-N-(4-(4-(4-(trifluoromethoxy)phenyl)piperidine-1-yl)benzyl)imidazo[1,2-a]pyridine-3-carboxamide ditosylate]",solubility at 3 days,"physchem [6]; IPA, 50 °C, organic solvent or mixture",3 mg/mL
same,solubility at 3 days,"physchem [6]; ethanol (EtOH), 50 °C, organic solvent or mixture",7 mg/mL
same,solubility at 3 days,"physchem [6]; ethanol (EtOH), organic solvent or mixture",1 mg/mL
same,solubility at 3 days,"physchem [6]; methanol (MeOH), 50 °C, organic solvent or mixture",275 mg/mL
same,solubility at 3 days,"physchem [6]; methanol (MeOH), organic solvent or mixture",126 mg/mL
same,solubility at 3 days,"physchem [6]; methyl isobutyl ketone (MIBK), 50 °C, organic solvent or mixture",2 mg/mL
same,solubility at 3 days,"physchem [6]; toluene, 50 °C, organic solvent or mixture",3 mg/mL
same,solubility at 3 days,"physchem [6]; toluene, organic solvent or mixture",1 mg/mL
same,solubility at 3 days,"physchem [6]; water, 50 °C",3 mg/mL
same,relative polymorph stability,[7],more stable than Form C
same,long-term storage stability,"[8]; 25° C. and 60% RH for up to 60 months, listed as Q203-ditosylate form A, ditosylate",remains stable
same,Purity [%] (as measured by HPLC),[8]; 0 months,>98%
same,Purity [%] (as measured by HPLC),[8]; 6 months,>98%
same,Purity [%] (as measured by HPLC),[8]; 12 months,>98%
same,Purity [%] (as measured by HPLC),[8]; 24 months,>98%
same,Purity [%] (as measured by HPLC),[8]; 36 months,>98%
same,Purity [%] (as measured by HPLC),[8]; 48 months,>98%
same,Purity [%] (as measured by HPLC),[8]; 60 months,>98%
same,crystalline form after exposure to 100% RH,[9],maintains its crystalline form; also recorded: no change to crystalline
same,Approximate solubility,"Acetone, 50° C.",nil
same,Approximate solubility,"Acetone, RT",nil
same,Approximate solubility,"Acetonitrile, 50° C.",nil
same,Approximate solubility,"Acetonitrile, RT",nil
same,Approximate solubility,"Dichloromethane (DCM), 50° C.",nil
same,Approximate solubility,"Dichloromethane (DCM), RT",nil
same,Approximate solubility,"EA, 50° C.",nil
same,Approximate solubility,"EA, RT",nil
same,Approximate solubility,"IPA, RT",nil
same,Approximate solubility,"IPAC, 50° C.",nil
same,Approximate solubility,"IPAC, RT",nil
same,Approximate solubility,"MA, 50° C.",nil
same,Approximate solubility,"MA, RT",nil
same,Approximate solubility,"Methul Isobutyl Ketone (MIBK), RT",nil
same,Approximate solubility,"Methyl Ethyl Ketone (MEK), 50° C.",nil
same,Approximate solubility,"Methyl Ethyl Ketone (MEK), RT",nil
same,Approximate solubility,"Methyl tert-Butyl Ether (TBME), 50° C.",nil
same,Approximate solubility,"Methyl tert-Butyl Ether (TBME), RT",nil
same,Approximate solubility,"THF, 50° C.",nil
same,Approximate solubility,"THF, RT",nil
same,Approximate solubility,"Water, RT",nil
same,purity (HPLC),[10],> 98%
same,water absorption (DVS),DVS water absorption,around 0.35%
